Test results from article PMC12339935 (Scientific Reports, 2025).
≈ marks a conversion by molar mass, not a printed value.

Legend:
[1] = test system: Bacillus cereus ATCC 11778; assay: Antibacterial optical density microplate assay, B. cereus; type: cell-based; conditions: for MIC: Bacillus cereus, ATCC11778, read-out: Anti-Bacillus cereus (MIC, µg/ml); for Anti-Bacillus cereus (MIC, µg/ml): B. cereus ATCC 11778, maximum tested concentration 50 µg/ml
[2] = test system: Staphylococcus aureus ATCC 29213; assay: Antibacterial optical density microplate assay, S. aureus; type: cell-based; conditions: ATCC29213, read-out: Anti-Staphylococcus aureus (MIC, µg/ml)
S. aureus = conditions: literature value; cited from earlier work
Mycobacterium bovis = conditions: cited from earlier work
Escherichia coli = conditions: literature value; cited from earlier work
in vitro [3] = conditions: human (MCF-7, NCI-H187); African green monkey (Vero)
[4] = test system: MCF-7 (human breast cancer) cells; conditions: maximum tested concentration 50 µg/ml
[5] = test system: NCI-H187 (human small-cell lung cancer) cells; conditions: maximum tested concentration 50 µg/ml
Vero cells = conditions: non-cancerous, maximum tested concentration 50 µg/ml
in vitro [6] = conditions: human
in vitro [7] = conditions: human; remark: listed apart in the source

Row | SMILES | MIC [1] | MIC [2] | Anti-Bacillus cereus (MIC, µg/ml) [1] | Cytotoxicity (IC50, µM) MCF-7 [4] | Cytotoxicity (IC50, µM) Vero (Vero cells) | also measured
1 | CC(=O)Nc1c2sscc-2n(C)c1=O [Compound 1, thiolutin] | 1.56 µg/mL (≈ 6.83 µM) | 3.13 µg/mL (≈ 13.7 µM) |  |  |  | MIC against S. aureus (S. aureus): 3.125 µg/mL (≈ 13.7 µM); MIC against Mycobacterium bovis (Mycobacterium bovis): 0.313 µg/mL (≈ 1.37 µM); MIC against Escherichia coli (Escherichia coli): 6.25 µg/mL (≈ 27.4 µM); IC50 (in vitro [3]): 0.35 to 5.61 µM
2 | CO[C@H]1/C=C/O[C@@]2(C)Oc3c(C)c(O)c4c(O)c(c(/C=N/N5CCN(C)CC5)c(O)c4c3C2=O)NC(=O)/C(C)=C\C=C\[C@H](C)[C@H](O)[C@@H](C)[C@@H](O)[C@@H](C)[C@H](OC(C)=O)[C@@H]1C [Rifampicin, reference compound] | 0.16 to 0.63 µg/mL (≈ 0.194 to 0.766 µM) | 0.04 to 0.56 µg/mL (≈ 0.0486 to 0.68 µM) |  |  |  | 
3 | COc1cccc(C(N)=O)c1O [Compound 6, 2-hydroxy-3-methoxybenzamide] |  |  | Inactive | Inactive | Inactive | Cytotoxicity (IC50, µM) NCI-H187 [5]: Inactive
4 | Cc1c2ccncc2c(C)c2c1[nH]c1ccccc12 [Ellipticine, reference compound] |  |  |  |  |  | IC50 (in vitro [6]): 11.8 µM
5 | Nc1cccc2c(=O)[nH]c(=O)oc12 [Compound 3, 8-amino-2 H-benz[e][1,3]oxazine-2,4(3 H)-dione] |  |  | Inactive | Inactive | Inactive | Cytotoxicity (IC50, µM) NCI-H187 [5]: Inactive
6 | CC/C(=C(\c1ccccc1)c1ccc(OCCN(C)C)cc1)c1ccccc1 [Tamoxifen] |  |  |  |  |  | IC50 (in vitro [7]): 43.4 µM
7 | CN[C@H](CC(C)C)C(=O)N[C@H]1C(=O)N[C@@H](CC(N)=O)C(=O)N[C@H]2C(=O)N[C@H]3C(=O)N[C@H](C(=O)N[C@H](C(=O)O)c4cc(O)cc(O)c4-c4cc3ccc4O)[C@H](O)c3ccc(c(Cl)c3)Oc3cc2cc(c3O[C@@H]2O[C@H](CO)[C@@H](O)[C@H](O)[C@H]2O[C@H]2C[C@](C)(N)[C@H](O)[C@H](C)O2)Oc2ccc(cc2Cl)[C@H]1O [Vancomycin, reference compound] | 1 to 2 µg/mL (≈ 0.69 to 1.38 µM) | 4 µg/mL (≈ 2.76 µM) |  |  |  | 
8 | NC(=O)c1cccc(O)c1O [Compound 5, 2,3-dihydroxybenzamide] |  |  | Inactive | Inactive | Inactive | IC50 (in vitro [6]): 33.8 µM
